Measurements taken from patent US6919306B2, “Method of skin care” (Yaizu Suisankagaku Industry Co. Ltd., priority 1999, dated 2005).
Marks after values point to notes of the source that are not given here.

Legend:
skin surface = assay: Microscopic three-dimensional skin surface analysis (VISIOSCAN); format: in vivo, human; set-up: key to SEsc (Ideal value: Lowest value), Below left eye / SEsc (Ideal value: Lowest value), Left upper arm: SEsc = I/(Nx×Ny)×100; lower = more moist, less scaling; key to SEsm (Ideal value: Lowest value), Left upper arm / SEsm (Ideal value: Lowest value), Below left eye: SEsm = (Co−Cu)×(Fmx−Fmy)×K; lower = smoother skin; SWw (Ideal value: Lowest value), Below left eye / SWw (Ideal value: Lowest value), Left upper arm: scale not given here; settings: for Kurtosis (Ideal value: 0), Below left eye / Kurtosis (Ideal value: 0), Left upper arm / Kurtosis (Ideal value: 0), Poll / SEr (Ideal value: Lowest value), Below left eye / SEr (Ideal value: Lowest value), Left upper arm / SEr (Ideal value: Lowest value), Poll / SEsc (Ideal value: Lowest value), Below left eye / SEsc (Ideal value: Lowest value), Left upper arm / SEsc (Ideal value: Lowest value), Poll / SEsm (Ideal value: Lowest value), Below left eye / SEsm (Ideal value: Lowest value), Left upper arm / SEsm (Ideal value: Lowest value), Poll / SWw (Ideal value: Lowest value), Below left eye / SWw (Ideal value: Lowest value), Left upper arm / SWw (Ideal value: Lowest value), Poll: NAG 1,000 mg/day oral; for SEr (Ideal value: Lowest value), Below left eye / SEr (Ideal value: Lowest value), Left upper arm / SEr (Ideal value: Lowest value), Poll: skin roughness; for SEsc (Ideal value: Lowest value), Below left eye / SEsc (Ideal value: Lowest value), Left upper arm / SEsc (Ideal value: Lowest value), Poll: skin scaliness; for SEsm (Ideal value: Lowest value), Below left eye / SEsm (Ideal value: Lowest value), Left upper arm / SEsm (Ideal value: Lowest value), Poll: skin smoothness; for SWw (Ideal value: Lowest value), Below left eye / SWw (Ideal value: Lowest value), Left upper arm / SWw (Ideal value: Lowest value), Poll: skin wrinkles
Experimental: To 22 females usually having a tendency of xeroderma and rough skin (average age: 25.5±10.7), a double blind long-term ingestion study was carried out in the following manners provided that a […] were given to a control group.
NAG-containing tablets-administered group (NAG group, n=11): Tablets prepared similarly as in Example 1 as described below (NAG amount: 200 mg/tablet), were ingested at a rate of 5 tablets/day (NAG 1,000 mg/day, as a daily dose).
The ingestion period was 8 weeks in each group. The inspection was in principle carried out just before the start of ingestion, 4 weeks after the start of ingestion, and just before the completion of ingestion (8 weeks after the start of ingestion).
This analysis was conducted by using a digital analyzer of the skin surface (VISIONSCAN: manufactured by Courage+Khazaka Electronic Gmbh). In use of this apparatus, the skin surface was irradiated with special ultraviolet ray source, and the image is taken by a high performance CCD camera and digitalized for evaluation. The following factors were sampled as parameters.
This value is calculated from the average of the width and depth of wrinkles by the following formula (i), and one of indices which show the smoothness of skin. The smaller this value is, the smoother the skin surface is. SEsm=(Co−Cu)×(Fmx−Fmy)×K (i) • Fmx: average width of furrows for the row analysis. • Fmy: average width of furrows for the column analysis. • Co: right frontier of the histogram whose calculation is based on a set-up values. • Cu: left frontier of the histogram whose calculation is based on a set-up values. • K: factor
This value is obtained by calculating the ratio of points darker than the set-up points in the whole image and further calculating by the following formula (ii), and one of indices which show the roughness of skin. The higher the value is, the rougher the skin is. SEr=I/(Nx×Ny)×100 (ii) • I: counter whose start value is 0 and which is incremented each time the gray value of the current point is smaller than the threshold issued from the set-up programs. • Nx: amount of point per row. • Ny: amount of point per column.
Epidermolysis parts are counted to be brighter than the set-up values in the image. The SEsc value is obtained by calculating the ratio of these parts relative to the entire part by the following formula (iii), and is one of indices which show the dryness of scale (corneum). The lower the value is, the more moist and the less epidermolysis (scale). SEsc=I/(Nx×Ny)×100 (iii) • I: counter whose start value is 0 and which is incremented each time the gray value of the current point is bigger than the threshold issued from the set-up programs. • Nx: amount of point per row. • Ny: amount of point per column.
The higher the value is, the more the number of wrinkle is and the wider the width of wrinkles is. SEw=Fmx×Fmy/(Fax×Fay)×Fay/Fax×K (iv) • Fax: amount of furrows for the row analysis. • Fmx: average width of furrows for the row analysis. • Fay: amount of furrows for the column analysis. • Fmy: average width of furrows for the column analysis. • K: factor
The closer to 0 the value is, the smoother in curve the hue point is and the closer to ideal skin.

Wister rats (SPF) = assay: Acute toxic test of NAG; format: in vivo; settings: rat
Experimental: To each of five males and five females of Wister rats (SPF), NAG was given by a single oral administration in an amount of 5,000 mg per kg of body weight. After the administration, these rats were bred for 14 days and observed, and no death was recognized. It was also recognized that the 50% lethal dose (LD50) to the rats was at least 5,000 mg per kg of body weight.

hyaluronic acid in skin = assay: Influence of orally administered NAG on hyaluronic acid content in skin; format: in vivo, hairless rats; settings: for Hyaluronic acid content, Epidermis / Hyaluronic acid content, Corium: hairless rats; for Hyaluronic acid content, Epidermis: 4 weeks (0 mg/kg/day: 31.25); for Hyaluronic acid content, Corium: 4 weeks (0 mg/kg/day: 462.7)
Experimental: Using hairless rats, influence of orally administered NAG on the content of hyaluronic acid in skin was tested. The NAG prepared in PREPARATION EXAMPLE 1 was mixed to a basic feed (Solid feed MF, manufactured by Oriental Kobo Kogyo Kabushiki Kaisha), and rats were permitted to freely ingest the mixture so that the substantial administered amount of NAG would be 0, 20 or 200 mg/kg of body weight/day. Administration was continued for 4 weeks from 9 week instar to 13 week instar, and the hyaluronic acid amounts in skin layer were measured separately for epidermis and corium. In this connection, the measurement of the hyaluronic acid was carried out in accordance with a hyaluronic acid measurement kit (manufactured by Chugai Shindanyaku Co.).

CC(=O)N[C@H]1C(O)O[C@H](CO)[C@@H](O)[C@@H]1O (some centres unmarked) [NAG, N-acetylglucosamine]
Kurtosis (Ideal value: 0), Below left eye (skin surface; after 4 weeks): 0.34 | Kurtosis (Ideal value: 0), Left upper arm (skin surface; after 4 weeks): 0.40 | Kurtosis (Ideal value: 0), Poll (skin surface; after 4 weeks): 0.39 | Kurtosis (Ideal value: 0), Below left eye (skin surface; after 8 weeks): 0.30 | Kurtosis (Ideal value: 0), Left upper arm (skin surface; after 8 weeks): 0.50 | Kurtosis (Ideal value: 0), Poll (skin surface; after 8 weeks): 0.39 | Kurtosis (Ideal value: 0), Below left eye (skin surface; before ingestion): 0.58 | Kurtosis (Ideal value: 0), Left upper arm (skin surface; before ingestion): 0.97 | Kurtosis (Ideal value: 0), Poll (skin surface; before ingestion): 0.79 | SEsm value and SEsc value at the poll, change (skin surface; NAG group, 1,000 mg/day oral, 8 weeks): significant decrease | SEr (Ideal value: Lowest value), Below left eye (skin surface; after 4 weeks): 0.26 | SEr (Ideal value: Lowest value), Left upper arm (skin surface; after 4 weeks): 0.22 | SEr (Ideal value: Lowest value), Poll (skin surface; after 4 weeks): 0.32 | SEr (Ideal value: Lowest value), Below left eye (skin surface; after 8 weeks): 0.21 | SEr (Ideal value: Lowest value), Left upper arm (skin surface; after 8 weeks): 0.28 | SEr (Ideal value: Lowest value), Poll (skin surface; after 8 weeks): 0.40 | SEr (Ideal value: Lowest value), Below left eye (skin surface; before ingestion): 0.25 | SEr (Ideal value: Lowest value), Left upper arm (skin surface; before ingestion): 0.30 | SEr (Ideal value: Lowest value), Poll (skin surface; before ingestion): 0.51 | SEsc (Ideal value: Lowest value), Below left eye (skin surface; after 4 weeks): 137.0 | SEsc (Ideal value: Lowest value), Left upper arm (skin surface; after 4 weeks): 195.8 | SEsc (Ideal value: Lowest value), Poll (skin surface; after 4 weeks): 201.6 | SEsc (Ideal value: Lowest value), Below left eye (skin surface; after 8 weeks): 133.0 | SEsc (Ideal value: Lowest value), Left upper arm (skin surface; after 8 weeks): 202.4 | SEsc (Ideal value: Lowest value), Poll (skin surface; after 8 weeks, p < 0.05): 169.3* | SEsc (Ideal value: Lowest value), Below left eye (skin surface; before ingestion): 238.4 | SEsc (Ideal value: Lowest value), Left upper arm (skin surface; before ingestion): 342.9 | SEsc (Ideal value: Lowest value), Poll (skin surface; before ingestion): 352.4 | SEsm (Ideal value: Lowest value), Below left eye (skin surface; after 4 weeks): 337.6 | SEsm (Ideal value: Lowest value), Left upper arm (skin surface; after 4 weeks): 324.7 | SEsm (Ideal value: Lowest value), Poll (skin surface; after 4 weeks, p < 0.05): 338.9* | SEsm (Ideal value: Lowest value), Below left eye (skin surface; after 8 weeks): 309.4 | SEsm (Ideal value: Lowest value), Left upper arm (skin surface; after 8 weeks): 379.9 | SEsm (Ideal value: Lowest value), Poll (skin surface; after 8 weeks, p < 0.05): 345.2* | SEsm (Ideal value: Lowest value), Below left eye (skin surface; before ingestion): 378.1 | SEsm (Ideal value: Lowest value), Left upper arm (skin surface; before ingestion): 384.7 | SEsm (Ideal value: Lowest value), Poll (skin surface; before ingestion): 443.8 | SWw (Ideal value: Lowest value), Below left eye (skin surface; after 4 weeks): 29.0 | SWw (Ideal value: Lowest value), Left upper arm (skin surface; after 4 weeks): 26.4 | SWw (Ideal value: Lowest value), Poll (skin surface; after 4 weeks): 23.4 | SWw (Ideal value: Lowest value), Below left eye (skin surface; after 8 weeks): 27.8 | SWw (Ideal value: Lowest value), Left upper arm (skin surface; after 8 weeks): 31.9 | SWw (Ideal value: Lowest value), Poll (skin surface; after 8 weeks): 29.5 | SWw (Ideal value: Lowest value), Below left eye (skin surface; before ingestion): 33.2 | SWw (Ideal value: Lowest value), Left upper arm (skin surface; before ingestion): 30.2 | SWw (Ideal value: Lowest value), Poll (skin surface; before ingestion): 27.3 | 50% lethal dose (LD50) (Wister rats (SPF); both, Wister, in vivo, po, 14 days): at least 5,000 mg per kg of body weight | safety on oral administration (Wister rats (SPF); orally administered 5 g per kg of body weight): safety is confirmed | hyaluronic acid contents in epidermis and corium versus administered amount (hyaluronic acid in skin; hairless rats, 0, 20 or 200 mg/kg/day, 4 weeks): tend to increase together in proportion to the administered amounts | Hyaluronic acid content, Epidermis (hyaluronic acid in skin; NAG 20 mg/kg/day in feed): 33.77 μg/g dried tissue | Hyaluronic acid content, Corium (hyaluronic acid in skin; NAG 20 mg/kg/day in feed): 506.6 μg/g dried tissue | Hyaluronic acid content, Epidermis (hyaluronic acid in skin; NAG 200 mg/kg/day in feed): 35.09 μg/g dried tissue | Hyaluronic acid content, Corium (hyaluronic acid in skin; NAG 200 mg/kg/day in feed): 549.8 μg/g dried tissue
